These are literature values, as cited in patent US10870689B2, “ApoM-Fc fusion proteins, complexes thereof with sphingosine 1-phosphate (S1P), and methods for treating vascular and non-vascular diseases” (Children's Medical Center Corporation, priority 2016, dated 2020).

In this data set the target is T1, S1P1 (Homo sapiens, UniProt P21453).
T1 construct: expressed in transfected cells
Particulars: Hofmann et al. 2009; Tsukada et al. 2007.

T1 sequence (P21453 whole entry, species assumed): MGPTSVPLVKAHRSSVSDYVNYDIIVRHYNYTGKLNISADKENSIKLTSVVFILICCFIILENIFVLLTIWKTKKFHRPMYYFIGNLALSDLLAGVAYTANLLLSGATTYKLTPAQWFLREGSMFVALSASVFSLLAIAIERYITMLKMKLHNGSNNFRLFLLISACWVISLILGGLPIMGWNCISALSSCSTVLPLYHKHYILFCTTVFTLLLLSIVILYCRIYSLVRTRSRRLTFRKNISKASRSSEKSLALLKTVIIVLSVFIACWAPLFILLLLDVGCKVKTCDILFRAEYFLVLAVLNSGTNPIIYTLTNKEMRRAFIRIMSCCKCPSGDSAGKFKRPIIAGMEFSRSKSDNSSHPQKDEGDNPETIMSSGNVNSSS

Regarding `FC(F)(F)c1cccc(-c2noc(-c3cc(-c4ccccc4)c(C(F)(F)F)s3)n2)c1` [SEW2871], the “effect on cardiac rhythm” value is listed as “induced abnormal cardiac rhythm”.
